These results are taken from ChEMBL document CHEMBL1201862, “PubChem BioAssay data set” (2004).

One data set addresses T1, Cytochrome P450 1A2 (Homo sapiens, UniProt P05177).
T1 sequence (P05177 whole entry): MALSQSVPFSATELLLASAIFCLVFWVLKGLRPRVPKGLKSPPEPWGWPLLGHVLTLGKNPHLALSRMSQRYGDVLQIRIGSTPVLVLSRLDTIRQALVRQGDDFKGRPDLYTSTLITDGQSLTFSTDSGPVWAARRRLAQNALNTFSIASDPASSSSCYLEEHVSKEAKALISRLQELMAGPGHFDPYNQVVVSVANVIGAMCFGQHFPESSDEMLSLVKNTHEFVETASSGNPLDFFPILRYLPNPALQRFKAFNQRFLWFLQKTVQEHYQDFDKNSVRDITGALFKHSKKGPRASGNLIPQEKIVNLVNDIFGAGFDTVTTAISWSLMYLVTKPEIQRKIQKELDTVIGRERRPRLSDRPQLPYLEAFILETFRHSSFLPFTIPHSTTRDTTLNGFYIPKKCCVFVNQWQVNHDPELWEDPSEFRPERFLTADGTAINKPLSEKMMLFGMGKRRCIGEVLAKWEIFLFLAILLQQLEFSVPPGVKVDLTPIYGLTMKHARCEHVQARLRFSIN

A short description of data set [1]: Luminescence Cell-Based Dose Retest to Confirm Inhibitors of Cancer Stem Cells. [Related pubchem assays (depositor defined):AID2717, AID2721]. It counts as functional. As to conditions: Homo sapiens.
Data set [2] can be described thus: NIH3T3 cell viability loss – ATP luminescence, mouse fibroblasts, counter-screen, dose response (AID 2010).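 Also: cells exposed to compound for about 90 hours before reading.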 It counts as functional, cell-based. On the technique in general: Counterscreens check selectivity or assay interference.
The nature of data set [3]: Trypanosoma cruzi growth suppression in host cells – NIH3T3 host cells, beta-gal luminescence, confirmation (AID 2044).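 Also: intracellular parasites grown in NIH/3T3 mouse fibroblasts as host cells; luminescent beta-galactosidase reporter signal from transgenic T. cruzi replicating inside host cells; inhibitors lower the luminescence signal.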 Format: functional, cell-based.
Another data set addresses Cytochrome P450 2D6 (Homo sapiens, UniProt P10635).
The target of the next data set is Cytochrome P450 2C19 (Homo sapiens, UniProt P33261). Put plainly: Cytochrome panel assay with activity outcomes. Panel member name: p450-cyp2c19 Compounds with AC50 equal or less than 10 uM are considered active. It counts as functional.
Sequence of Cytochrome P450 2C19 (P33261 whole entry): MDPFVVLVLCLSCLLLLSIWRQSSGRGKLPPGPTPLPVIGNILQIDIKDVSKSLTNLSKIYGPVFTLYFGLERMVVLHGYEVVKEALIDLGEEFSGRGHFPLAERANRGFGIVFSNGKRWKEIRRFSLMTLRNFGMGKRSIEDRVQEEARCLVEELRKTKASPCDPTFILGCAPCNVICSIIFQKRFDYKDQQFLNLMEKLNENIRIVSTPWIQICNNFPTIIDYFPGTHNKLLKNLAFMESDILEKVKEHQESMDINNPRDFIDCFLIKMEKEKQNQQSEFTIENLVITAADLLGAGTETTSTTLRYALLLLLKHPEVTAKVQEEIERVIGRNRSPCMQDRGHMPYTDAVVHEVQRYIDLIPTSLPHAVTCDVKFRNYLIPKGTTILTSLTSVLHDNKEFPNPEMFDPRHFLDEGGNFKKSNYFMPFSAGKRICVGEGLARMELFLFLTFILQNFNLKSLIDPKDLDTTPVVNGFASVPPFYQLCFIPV
Another data set has as its target Cytochrome P450 3A4 (Homo sapiens, UniProt P08684).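 Also: CYP3A4 tested as one member of a cytochrome P450 panel screen.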
Another data set deals with INS1. Put plainly: INS-1E survival protection against cytokine death – cell-based, luminescence, retest, dose response (AID 449756).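 Also: cell death triggered by IL-1 beta plus TNF-alpha plus IFN-gamma mixture; protective hits raise ATP signal compared with cytokine alone wells.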 Format: functional. As to conditions: Rattus norvegicus, INS1.
In data set [4] the target is T2, Heat shock factor protein 1 (Mus musculus, UniProt P38532).
T2 sequence (P38532 whole entry): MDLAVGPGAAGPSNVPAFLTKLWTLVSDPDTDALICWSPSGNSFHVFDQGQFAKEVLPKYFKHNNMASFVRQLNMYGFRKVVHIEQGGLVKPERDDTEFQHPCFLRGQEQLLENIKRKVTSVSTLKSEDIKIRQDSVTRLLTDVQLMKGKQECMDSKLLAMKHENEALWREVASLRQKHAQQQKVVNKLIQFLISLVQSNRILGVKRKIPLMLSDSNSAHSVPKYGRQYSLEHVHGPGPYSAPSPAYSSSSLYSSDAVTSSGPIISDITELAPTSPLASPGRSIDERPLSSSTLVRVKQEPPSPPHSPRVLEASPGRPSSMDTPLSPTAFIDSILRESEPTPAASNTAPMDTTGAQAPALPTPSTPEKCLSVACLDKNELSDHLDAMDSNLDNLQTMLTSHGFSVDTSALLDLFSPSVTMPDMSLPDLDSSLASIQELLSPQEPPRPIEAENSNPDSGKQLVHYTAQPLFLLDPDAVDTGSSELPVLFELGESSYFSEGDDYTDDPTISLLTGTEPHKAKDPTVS
Put plainly: enhancement of HSF1-driven luciferase signal – cell-based, NIH3T3, luminescence, dose retest, confirmation (AID 435004).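 Also: stress induced by proteasome inhibitor MG132 added 30 min after compound; luciferase reporter driven by HSF1 response element in NIH3T3 cells; actives raise luminescence as potentiators of the MG132 stress response.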 Format: functional.

A short description of data set [5]: Luminescence Cell-Based Dose Response HTS to Identify Inhibitors of 5'UTR Stem-Loop Driven Prion Protein mRNA Translation in H4 Neuroglioblastoma Cells. [Related pubchem assays: 1827 (Project Summary), 1813 (Primary HTS)]. Format: functional.
The nature of data set [6]: alpha-synuclein stem-loop luciferase translation blockers – H4 neuroglioma cells, luminescence, confirmation (AID 1988). Format: functional, cell-based.
A short description of data set [7]: luciferase reporter signal suppression in cells – H4 neuroglioma cells, luminescence, dose response (AID 1990). Format: functional, cell-based.
For a further data set, the target named is T3, Protein RecA (Mycobacterium tuberculosis, UniProt P9WHJ3).
T3 sequence (P9WHJ3 whole entry): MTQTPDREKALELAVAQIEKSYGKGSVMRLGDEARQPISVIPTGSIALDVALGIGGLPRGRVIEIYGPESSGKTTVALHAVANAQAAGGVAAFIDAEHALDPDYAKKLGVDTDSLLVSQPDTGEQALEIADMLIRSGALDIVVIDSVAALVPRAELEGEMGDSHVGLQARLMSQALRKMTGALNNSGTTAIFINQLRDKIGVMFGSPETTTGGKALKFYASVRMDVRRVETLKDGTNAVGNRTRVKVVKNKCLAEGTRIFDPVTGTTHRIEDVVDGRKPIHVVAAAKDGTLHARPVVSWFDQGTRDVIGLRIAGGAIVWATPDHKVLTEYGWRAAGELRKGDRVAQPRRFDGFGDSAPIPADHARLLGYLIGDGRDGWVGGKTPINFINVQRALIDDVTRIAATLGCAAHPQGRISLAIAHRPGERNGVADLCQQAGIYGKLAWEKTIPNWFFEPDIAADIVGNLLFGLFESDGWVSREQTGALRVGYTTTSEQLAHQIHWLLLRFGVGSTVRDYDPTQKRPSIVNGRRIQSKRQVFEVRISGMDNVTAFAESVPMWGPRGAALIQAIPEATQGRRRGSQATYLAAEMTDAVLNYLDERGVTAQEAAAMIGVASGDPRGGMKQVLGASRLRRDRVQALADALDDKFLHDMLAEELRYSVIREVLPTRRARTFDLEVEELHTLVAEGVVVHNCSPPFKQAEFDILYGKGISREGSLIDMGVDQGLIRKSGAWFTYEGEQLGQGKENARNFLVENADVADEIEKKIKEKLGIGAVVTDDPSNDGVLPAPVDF
Description: Fluorescence Cell-Free Homogeneous Dose Retest to Identify Inhibitors of RecA-Intein Splicing Activity. [Related pubchem assays (depositor defined):AID2097, AID2223, AID489010, AID492950]. Format: functional.

The target in data set [8] is T4, Replicative DNA helicase DnaB (Mycobacterium tuberculosis, UniProt P9WMR3).
T4 sequence (P9WMR3 whole entry): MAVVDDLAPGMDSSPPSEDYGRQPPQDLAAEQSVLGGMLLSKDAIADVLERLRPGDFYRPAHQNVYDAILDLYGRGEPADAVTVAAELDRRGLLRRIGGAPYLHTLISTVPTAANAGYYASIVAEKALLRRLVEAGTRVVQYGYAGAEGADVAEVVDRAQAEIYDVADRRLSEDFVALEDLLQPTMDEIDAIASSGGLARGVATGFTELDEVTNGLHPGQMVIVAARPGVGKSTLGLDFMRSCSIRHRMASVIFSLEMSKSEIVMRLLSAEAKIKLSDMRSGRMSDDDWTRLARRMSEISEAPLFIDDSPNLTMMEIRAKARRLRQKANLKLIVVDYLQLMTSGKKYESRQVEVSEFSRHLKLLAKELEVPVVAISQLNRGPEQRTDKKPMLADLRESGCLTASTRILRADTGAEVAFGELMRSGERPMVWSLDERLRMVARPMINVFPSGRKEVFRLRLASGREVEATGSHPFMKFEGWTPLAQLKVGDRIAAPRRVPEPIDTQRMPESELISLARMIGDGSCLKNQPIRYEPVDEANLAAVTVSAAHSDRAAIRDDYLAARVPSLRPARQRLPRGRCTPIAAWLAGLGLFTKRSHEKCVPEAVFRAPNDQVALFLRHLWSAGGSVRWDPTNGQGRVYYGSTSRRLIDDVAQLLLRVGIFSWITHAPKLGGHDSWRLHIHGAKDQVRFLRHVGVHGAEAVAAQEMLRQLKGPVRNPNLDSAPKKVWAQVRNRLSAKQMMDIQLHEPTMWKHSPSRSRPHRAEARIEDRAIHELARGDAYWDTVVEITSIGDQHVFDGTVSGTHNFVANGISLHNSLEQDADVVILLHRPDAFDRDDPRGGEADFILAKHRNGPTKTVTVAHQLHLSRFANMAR
Put plainly: DnaB intein splicing inhibitors, dose response, biochemical, cell-free fluorescence (AID 449749). It counts as functional.

Each structure is given as a SMILES string. Activity calls are given as the source filed them.

Sequence of Cytochrome P450 3A4 (P08684 whole entry): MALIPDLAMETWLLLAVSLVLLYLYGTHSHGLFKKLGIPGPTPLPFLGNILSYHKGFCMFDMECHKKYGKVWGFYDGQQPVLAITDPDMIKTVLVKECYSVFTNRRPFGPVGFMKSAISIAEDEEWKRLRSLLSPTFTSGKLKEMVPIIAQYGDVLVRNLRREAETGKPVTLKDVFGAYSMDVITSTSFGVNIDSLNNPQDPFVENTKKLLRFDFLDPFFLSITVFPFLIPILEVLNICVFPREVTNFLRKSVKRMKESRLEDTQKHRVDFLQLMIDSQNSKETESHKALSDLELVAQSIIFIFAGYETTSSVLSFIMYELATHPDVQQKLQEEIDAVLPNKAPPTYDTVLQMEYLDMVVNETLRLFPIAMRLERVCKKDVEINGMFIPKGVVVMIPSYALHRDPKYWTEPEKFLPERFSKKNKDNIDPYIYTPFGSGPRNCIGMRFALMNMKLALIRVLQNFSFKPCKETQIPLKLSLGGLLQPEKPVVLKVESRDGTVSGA
Sequence of Cytochrome P450 2D6 (P10635 whole entry): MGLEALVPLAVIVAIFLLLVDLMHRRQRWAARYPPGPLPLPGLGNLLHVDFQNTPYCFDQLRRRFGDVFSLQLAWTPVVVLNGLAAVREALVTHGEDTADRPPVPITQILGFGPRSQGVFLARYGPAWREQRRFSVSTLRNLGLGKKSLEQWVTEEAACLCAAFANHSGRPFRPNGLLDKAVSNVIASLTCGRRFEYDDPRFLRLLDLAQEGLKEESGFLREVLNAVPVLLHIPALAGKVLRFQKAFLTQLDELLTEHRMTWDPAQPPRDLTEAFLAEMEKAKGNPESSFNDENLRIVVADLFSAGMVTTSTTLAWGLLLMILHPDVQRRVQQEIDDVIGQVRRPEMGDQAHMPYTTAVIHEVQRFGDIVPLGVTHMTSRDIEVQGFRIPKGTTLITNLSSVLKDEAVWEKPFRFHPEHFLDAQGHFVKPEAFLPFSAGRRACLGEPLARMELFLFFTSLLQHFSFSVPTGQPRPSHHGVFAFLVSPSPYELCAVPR

For `COc1ccc2c3c(ccc2c1)N[C@H](C(=O)O)CC3`, the AC50 on Cytochrome P450 1A2 was 0.501 µM (inconclusive).

As for `Cc1ccc2sc(N(CCCN(C)C)C(=O)c3ccc(S(=O)(=O)N4CCCCCC4)cc3)nc2c1C`, in [1], the AC50 is 3.12 µM (active). The values for the EC50 in data set [2] and in data set [3] were 9.3 µM (active) and 0.445 µM (active), respectively.

On to `COc1ccc(CNc2nc(-c3cccc(NS(C)(=O)=O)c3)nc3ccccc23)c(OC)c1`, for which the half-maximal activity concentration (AC50) on Cytochrome P450 2D6 is 12.6 µM (inconclusive).

With `CN1CCN(C2CC(=O)N(Cc3ccc(N4CCCC4=O)cc3)C2=O)CC1` (stereo unspecified), the AC50 result on Cytochrome P450 2C19 is reported as “inconclusive”.

As for `CSc1nc2n(n1)C(c1cc(Br)ccc1F)C(C(=O)N(C)C)=C(C)N2` (stereo unspecified), the figures for the AC50 on Cytochrome P450 1A2 and at Cytochrome P450 3A4 were 25.1 µM (inconclusive) and 14.1 µM (inconclusive), respectively.

For the molecule `CC(=O)N1c2ccc(Cl)cc2C2C=CCC2C1c1cccc2ccccc12` (stereo unspecified), the AC50 in data set [1] is 2.27 µM (active).

Consider `O=[N+]([O-])c1ccc(C2CCCC/C2=N\OCc2cccc(F)c2)c([N+](=O)[O-])c1` (stereo unspecified), for which, on Cytochrome P450 1A2, the AC50 is 15.8 µM (inconclusive). For the same molecule, the EC50 in data set [2] is > 60 µM (not active); in data set [3], 0.518 µM (active).

Turning to `COc1c(O)ccc2c1CN1CCc3cc4c(cc3[C@@H]1C2)OCO4`, the AC50 on Cytochrome P450 1A2 is 0.501 µM (inconclusive); at Cytochrome P450 2C19 (read-out: AC50), 3.98 µM (inconclusive); on Cytochrome P450 3A4, 5.01 µM (inconclusive).

With `CC[C@@H]1CC(=O)N(SC[C@H](N)C(=O)O)C1=O`, on Cytochrome P450 2C19, the concentration at half-maximal activity (AC50) result is reported as “inconclusive”.

For the molecule `CC(NC(=O)C1CCC(C(=O)NC(C)c2ccccc2)CC1)c1ccccc1` (stereo unspecified), the AC50 in data set [1] was > 195 µM (inactive); in the data set with INS1, > 260 µM (inactive).

For the molecule `CCOc1ccc(NC(=O)Nc2ccc(Cc3ccncc3)cc2)cc1`, in [1], the AC50 is 8.67 µM (active).

In the case of `COc1ccccc1-c1c[nH]nc1-c1ccc(OCc2ccccc2F)cc1O`, the AC50 in data set [1] is 4.88 µM (active).

For the molecule `Cc1ccc2nc(N(CCCN(C)C)C(=O)c3cc(-c4cccs4)nc4ccccc34)sc2c1`, the AC50 in data set [1] is 4.45 µM (active).

With `COc1ccc(NS(=O)(=O)c2cccc(C(=O)N/N=C(\C)c3ccc(-n4ccnc4)cc3)c2)cc1`, the AC50 in [1] is > 195 µM (inactive).

For the molecule `CCN1CCN(Cc2ccc(OCc3ccccc3)cc2)CC1`, in data set [1], the AC50 is 1.89 µM (active).

As to `COc1ccc(N2CCN(c3ncnc4c3cnn4-c3ccc(C)cc3C)CC2)cc1`, the EC50 in [4] was > 260 µM (inactive).

As to `C=CCCC(=O)Nc1nc(C)c(-c2csc(Nc3cc(OC)ccc3OC)n2)s1`, the AC50 in data set [1] was 0.71 µM (active). Further, the EC50 is 12.1 µM (active) in data set [5], 5.52 µM (active) in data set [6] and > 120 µM (not active) in [7].

For `CCOc1ncccc1C(=O)N(C)CC1COc2ccccc2O1` (stereo unspecified), the EC50 in data set [4] is > 260 µM (inactive).

As to `CC(C)(C)c1ccc(COC(=O)CNC(=O)CNC(=O)Cc2ccccc2)cc1`, at Cytochrome P450 2C19 (read-out: AC50), the AC50 was 31.6 µM (inconclusive).

Regarding `O=C(CSc1ncnc2c1nnn2-c1ccc(F)cc1)NCC1CCCO1` (stereo unspecified), the EC50 at Protein RecA was 3.67 µM (active); in data set [4] it was 36.2 µM (active). Also, the AC50 in data set [8] was 3.14 µM (active).

As for `CCOc1ccc(OCCC(=O)OCC(=O)N2CCN(S(=O)(=O)c3ccc(Cl)cc3)CC2)cc1`, the EC50 in data set [4] was 18.5 µM (active).

For `O=C(O)CCc1ccc(-c2ccc(Br)cc2)n1Cc1ccco1`, the EC50 in data set [4] is > 260 µM (inactive).

On to `COc1cc(C(=O)OC2CC3CCC2(C)C3(C)C)ccc1OC(C)=O` (stereo unspecified), for which the AC50 in data set [1] is 3.75 µM (active).

Consider `CC1CCC(C(=O)NC(C(=O)N2CCC(N3CCCCC3)CC2)C(C)C)CC1` (stereo unspecified), for which the half-maximal activity concentration (AC50) at Cytochrome P450 2C19 (read-out: AC50) is 8.91 µM (inconclusive); at Cytochrome P450 3A4, 14.1 µM (inconclusive).

As to `Cc1cc(C(=O)CN2C(=O)NC3(CCCCC3)C2=O)c(C)n1Cc1ccco1`, the EC50 in [4] was 44 µM (active).

Consider `CCN(CC)C(=O)CSc1ncnc2sc(C)c(C)c12`, for which, in [4], the EC50 was > 260 µM (inactive).

In the case of `CC(C)C(=O)NCCc1nc2ccccc2n1CCCOc1ccc(Cl)cc1`, the AC50 at Cytochrome P450 1A2 was 28.2 µM (inconclusive).

The term AC50 denotes the concentration giving half of the maximal activity seen. As usually defined, the EC50 is the concentration giving half of the maximal effect.
